Measured values from patent US5395947A, “Platinum(II) complex and processes for preparing the same” (Sunkyong Industries, Ltd., priority 1991, dated 1995).

Experiments:
[1] = system: murine leukemia L1210 cells; assay: Growth inhibition test on cultured murine leukemia L1210 cells; type: cell-based; conditions: 48 hours, 37° C., Trypan blue viability
Summary of the method: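 Read-out is Trypan blue (0.17%) viability versus compound-free controls. Cells, 1×10^5, were cultured 48 h at 37° C under 5% CO2 in RPMI 1640/10% FCS containing various compound concentrations.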

[2] = system: murine leukemia L1210; assay: Antitumor activity test on murine leukemia L1210 in vivo; set-up: species or system male BDF1 mice; conditions: days 1, 5, 9
Summary of the method: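 Male BDF1 mice (6 weeks, 21±3 g; n=7) received 1×10^6 leukemia cells into the peritoneum on day 0, then test compound suspended or dissolved in 0.5% CMC i.p. on days 1, 5, 9. Activity expressed as T/C %, mean survival treated versus 0.5% CMC-injected controls.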

[3] = Test for nephrotoxicity; type: in vivo, male ICR mice; conditions: 18.8 mg/kg i.p. once
Procedure: 4. Test for nephrotoxicity
The compounds of the present invention were dissolved or suspended in 0.5% CMC solution(in water) and were administered intraperitoneally one time to 8-week-old male ICR mice weighing 30±3 g. Each treatment and control groups consisted of six mice.
The administration amount of the test compound was 1.5 times the optimum dose obtained in Table 2, or more. On days 1, 4 and 8 after administration, their blood was collected under ether anesthesia for measurement of blood urea nitrogen concentration (BUN value) and creatinine concentration.
A pair of kidneys were taken and, after immediate weighing, were stored in a 10% neutral buffered formalin solution. The body weight ratio shown in Table 5 is a ratio of the body weight measured on days 1, 4 and 8 from the administration of the compound to the body weight measured on the administration day.

[4] = system: ICR mice; assay: Acute toxicity test; type: in vivo; set-up: Lethality: unit not given here; conditions: for Lethality: 10080 min
Summary of the method: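 Single i.p. administration to ICR mice (7 weeks old, both sexes, n=6/group); appearance and mortality logged over 7 days, dead animals autopsied for gross pathology.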

CC(C)C1OC(CN)C(CN)O1.CC1[O][Pt][O]C1=O [Example 19, (L-lactato-O,O')[(4R,5R)-4,5-bis(aminomethyl)-2-isopropyl-1,3-dioxolane]platinum(II)]
IC50 (concentration required for 50% inhibition of growth) [1]: 0.29 µg/mL | T/C (%) ([2]; 12.5 mg/kg i.p.): 208% | T/C (%) ([2]; 25 mg/kg i.p.): 232% | T/C (%) ([2]; 50 mg/kg i.p.): toxic | BUN, 1st day [3]: 38.6 mg/100 ml | BUN, 4th day [3]: 27.9 mg/100 ml | BUN, 8th day [3]: 50.7 mg/100 ml | Number of dead mice for 7 days ([4]; female, 41.3 mg/kg i.p.): 2/6 | Number of dead mice, 1st day ([4]; female, 41.3 mg/kg i.p.): 0/6 | Number of dead mice, 5th day ([4]; female, 41.3 mg/kg i.p.): 1/6 | Number of dead mice, 6th day ([4]; female, 41.3 mg/kg i.p.): 1/5 | Lethality ([4]; female, 41.3 mg/kg i.p.): 33.3 | Number of dead mice for 7 days ([4]; female, 54.9 mg/kg i.p.): 4/6 | Number of dead mice, 1st day ([4]; female, 54.9 mg/kg i.p.): 0/6 | Number of dead mice, 3rd day ([4]; female, 54.9 mg/kg i.p.): 1/6 | Number of dead mice, 4th day ([4]; female, 54.9 mg/kg i.p.): 2/5 | Number of dead mice, 5th day ([4]; female, 54.9 mg/kg i.p.): 1/3 | Lethality ([4]; female, 54.9 mg/kg i.p.): 66.7 | Number of dead mice for 7 days ([4]; female, 71.4 mg/kg i.p.): 5/6 | Number of dead mice, 1st day ([4]; female, 71.4 mg/kg i.p.): 0/6 | Number of dead mice, 4th day ([4]; female, 71.4 mg/kg i.p.): 1/6 | Number of dead mice, 5th day ([4]; female, 71.4 mg/kg i.p.): 3/5 | Number of dead mice, 6th day ([4]; female, 71.4 mg/kg i.p.): 1/2 | Lethality ([4]; female, 71.4 mg/kg i.p.): 83.3 | Number of dead mice for 7 days ([4]; female, 91.8 mg/kg i.p.): 6/6 | Number of dead mice, 1st day ([4]; female, 91.8 mg/kg i.p.): 0/6 | Number of dead mice, 2nd day ([4]; female, 91.8 mg/kg i.p.): 1/6 | Number of dead mice, 3rd day ([4]; female, 91.8 mg/kg i.p.): 2/5 | Number of dead mice, 4th day ([4]; female, 91.8 mg/kg i.p.): 2/3 | Number of dead mice, 5th day ([4]; female, 91.8 mg/kg i.p.): 1/1 | Lethality ([4]; female, 91.8 mg/kg i.p.): 100.0 | Number of dead mice for 7 days ([4]; male, 41.3 mg/kg i.p.): 3/6 | Number of dead mice, 1st day ([4]; male, 41.3 mg/kg i.p.): 0/6 | Number of dead mice, 5th day ([4]; male, 41.3 mg/kg i.p.): 1/6 | Number of dead mice, 6th day ([4]; male, 41.3 mg/kg i.p.): 2/5 | Lethality ([4]; male, 41.3 mg/kg i.p.): 50.0 | Number of dead mice for 7 days ([4]; male, 54.9 mg/kg i.p.): 4/6 | Number of dead mice, 1st day ([4]; male, 54.9 mg/kg i.p.): 0/6 | Number of dead mice, 4th day ([4]; male, 54.9 mg/kg i.p.): 1/6 | Number of dead mice, 5th day ([4]; male, 54.9 mg/kg i.p.): 2/5 | Number of dead mice, 6th day ([4]; male, 54.9 mg/kg i.p.): 1/3 | Lethality ([4]; male, 54.9 mg/kg i.p.): 66.7 | Number of dead mice for 7 days ([4]; male, 71.4 mg/kg i.p.): 5/6 | Number of dead mice, 1st day ([4]; male, 71.4 mg/kg i.p.): 0/6 | Number of dead mice, 4th day ([4]; male, 71.4 mg/kg i.p.): 1/6 | Number of dead mice, 5th day ([4]; male, 71.4 mg/kg i.p.): 2/5 | Number of dead mice, 6th day ([4]; male, 71.4 mg/kg i.p.): 2/3 | Lethality ([4]; male, 71.4 mg/kg i.p.): 83.7 | Number of dead mice for 7 days ([4]; male, 91.8 mg/kg i.p.): 6/6 | Number of dead mice, 1st day ([4]; male, 91.8 mg/kg i.p.): 0/6 | Number of dead mice, 2nd day ([4]; male, 91.8 mg/kg i.p.): 1/6 | Number of dead mice, 3rd day ([4]; male, 91.8 mg/kg i.p.): 4/5 | Number of dead mice, 5th day ([4]; male, 91.8 mg/kg i.p.): 1/1 | Lethality ([4]; male, 91.8 mg/kg i.p.): 100.0
